Data as given in patent US10653693B2, “PRMT5 inhibitors and uses thereof” (Epizyme, Inc., priority 2014, dated 2020).

Tested on: MCL cell lines (Z-138, Maver-1, Mino, Jeko-1, Granta-519)
Assay: Gene expression results from MCL cell lines (Table 4)
Format: cell-based, Human
Conditions: Day 4
Procedure: The fold change was calculated using the Comparative Ct method ([…]). N=1. A previous RNA Seq study in MCL cell lines using a tool compound with the same cellular potency as Formula B identified expression changes in a number of genes involved in the apoptotic response (unpublished results). These genes included the Bcl-2 family members PUMA and BAX, well characterized drivers of the apoptotic response. Other genes implicated in the apoptotic response were also identified and include PHLDA3, TP53I3, p21, APOBEC3H, TRIM22, and FAS. […] [table]

[1] = tested: Z-138, Maver-1, Granta-519, Jeko-1

CC(=O)N1CCC(Nc2cc(C(=O)NC[C@H](O)CN3CCc4ccccc4C3)ccn2)CC1 [Formula B] was tested, and the “Cell Lines Showing Dose Dependent Changes: P21” value (tested: Z-138, Granta-519, Jeko-1) was “Z-138, Granta-519”, the “Cell Lines Showing Dose Dependent Changes: BAX” value (tested: Z-138, Maver-1) was “Z-138, Maver-1” and the “Cell Lines Showing Dose Dependent Changes: FAS” value [1] was “Granta-519 (slight)”. For the same compound, the “Cell Lines Showing Dose Dependent Changes: TRIM22” value [1] was “Granta-519 (slight)” and the “Cell Lines Showing Dose Dependent Changes: PUMA” value (tested: Z-138, Maver-1, Mino, Jeko-1, Granta-519) was “Z-138, Maver-1”.
